Experiment [1] deals with inflammatory genes (ICAM1, IL-6, IL-1β, MCP1, TGF-β1, VCAM1, TNF-α). The experiment is described as follows: inflammatory gene expression (mRNA transcript levels) in tissues after 6 weeks of treatment. In kind it is in vivo, rat. The conditions noted are these: 50 mg/kg daily IP. As for the experimental part: (§1) To further examine the effects of prolyl lipoic acid (Formula (III)) on hypertension, the effect of prolyl lipoic acid was examined in spontaneously hypertensive rats over a longer time period. Briefly, spontaneously hypertensive rats (SHRSP rats, 10 weeks of age, n=10/group) were randomized to placebo or prolyl lipoic acid (50 mg/kg) groups for a duration of 6 weeks. The animals were housed 2 to a cage and were given Harlan-Teklad Laboratory Rodent Diet ad libitum (Harlan Laboratories, Indianapolis, Ind.). Prolyl lipoic acid or saline placebo was administered to the rats by daily intraperitoneal (IP) dosing.
Furthermore, inflammatory gene expression was assessed in the aorta, heart, brain and kidney by probing for mRNA transcript levels of the various inflammatory genes. Aortic and cardiac collagen synthesis was also assessed by Picrosirius Red staining and Massom-Trichrome staining and quantified by an automated thresholding program.

For experiment [2], the system named is pre-constricted rat aortic segments. The experiment is described as follows: vasodilation of phenylephrine pre-constricted aortic rings in myograph. More on the design: species or system male Sprague-Dawley Rats. The conditions noted are these: for relaxation of pre-constricted rat aortic segments: phenylephrine 0.1 μM pre-constriction, after 4-hour incubation with 44 mM glucose. As for the experimental part:
To determine the effect of lipoic acid and prolyl lipoic acid (Formula (III)) on vasodilation, aortas from male Sprague-Dawley Rats (n=2) were utilized. Briefly, each animal was first sacrificed and their aortas were removed. The aortas were then incubated in phosphate-buffered-saline (PBS) containing 44 mM glucose for 4 hours. Eight 5-mm ring segments of thoracic aorta were then suspended in a myograph chamber filled with a Krebs buffer of the following composition: NaCl, 118.3; KCl, 4.69; CaCl2, 1.87; MgSO4, 1.20; K2HPO4, 1.03; NaHCO3 25.0; and glucose 11.1; all values in mM, pH 7.40. During the following hour, the resting tension was increased to optimize constrictions due to exposure to KCl. The vessel segments were then pre-constricted with phenylephrine (PE; 0.1 μM) and were subjected to prolyl lipoic acid (Formula (III)) or lipoic acid. Vasodilation in the rat aortic rings in response to L-prolyl lipoic acid (1×10^−4 M) or lipoic acid (1×10^−4 M) (both dissolved in aqueous media) was then measured after a 4-hour incubation with glucose (44 mM). Endothelial cell function in the aortic rings was also measured by pre-constricting the aortic rings to the EC50 of phenylephrine and then subjecting the rings to a maximum acetylcholine dose (10^−5M).

The subject of experiment [3] is spontaneously hypertensive stroke prone rats (SHRSP). The experiment is described as follows: endothelial function by myography of aortic segments after 6 weeks of treatment. In kind it is in vivo, rat. Particulars: 50 mg/kg daily IP, pre-contraction 0.3 μM phenylephrine. As for the experimental part:
as §1
Following the completion of the six week period, the animals were euthanized at week 17 by lethal pentobarbital injection and tissues were removed from the animal. Upon removal of the tissues, endothelial function was assessed. It is known that endothelial function can refer to the unimpaired production of or availability of NO and/or a balance in the relative contribution of endothelium-derived relaxing and contracting factors (such as ET-1, angiotensin, and oxidants). […] As such, once the tissues were removed from the animals, endothelial cell function was assessed in the experimental groups by myography as percent-relaxation to acetylcholine or sodium nitroprusside subsequent to pre-contraction with 0.3 μM phenylephrine.

For experiment [4] the test system is unchanged. Description: histology of organ sections (H&E wall thickness, CD68 staining) after 6 weeks of treatment. Type of experiment: in vivo, rat. Particulars: 50 mg/kg daily IP. As for the experimental part:
as §1
Additionally, four to eight sections of each organ were stained with CD68 or H&E for 10 animals (5 in each group) and images were obtained at 200× by bright-field microscopy. MetaMorph software was used for automated thresholding. The percentage of thresholded area of the picture was recorded and reported. Additionally, about 12 organ sections per rat were prepared for 10 of the rats (5 in each group). These sections were 5 microns in size and were stained with hematoxylin and eosin (H&E). Images were obtained at 40× (using bright-field microscopy and analyzed using MetaMorph software. For each image, the external elastic lamina of the aorta was traced using a drawing tool, and this area was logged. The luminal area was also measured. Thus, the tunica intima and tunica media were included in these measurements, not tunica adventitia. The wall thickness was calculated by subtracting the luminal area from the wall area.

The test system is the same in experiment [5]. Description: blood pressure by intra-arterial catheter / radio-telemetry in hypertension model. In kind it is in vivo, rat. From the text: To determine the effect of prolyl lipoic acid (Formula (III)) in an animal model of hypertension, spontaneously hypertensive stroke prone rats (SHRSP) were first procured from Charles River at the age of 6 weeks (Charles River Laboratories, Wilmington, Mass., U.S.A.). After a period of acclimatization for 4 weeks, the rats were then implanted with intra-arterial catheters in the abdominal aorta along with a radio-telemetry monitoring device to assess systolic blood pressure. Briefly, to implant the radio-telemetry devices, the operative procedure involved anesthetizing the animals with 375 mg/kg of 2,2,2-tribromoethanol (Sigma Chemical Co., St. Louis, Mo.). An incision was then made in the abdomen and the aorta was exposed. A 0.4 mm catheter attached to a combination pressure transducer, transmitter, and battery, all encapsulated in a implantable micro-miniature electronic monitor (PA-C20, Data Sciences International, St. Paul, Minn.), was then inserted.
Following implantation of the radio-telemetry devices, the animals were allowed to recover and the aortic pressure of each animal was monitored continuously. Once the animals sufficiently recovered, the rats then received 50 mg/kg of prolyl lipoic acid, dissolved in aqueous media, in a single dose. The blood pressures were then measured over a period of 12 hours and compared to the previous 12 hour period. […]
During the 6 week experimental period, blood pressure measurements were performed in a sub-group of 4 animals randomized to prolyl lipoic acid by intra-arterial catheter placement in the infra-renal aorta and acute administration of the prolyl lipoic acid prior to administration of drug. Additionally, four SHRSP rats (12 weeks old) were implanted with radio-telemetry transmitters (DataSciences Inc., St. Paul, Minn.) into their abdominal aortas and blood pressure was measured using the DSI system (DataSciences Inc.). In these later experiments, blood pressure was recorded continuously over 24-hour periods and reported as the change in blood pressure in the 12-hour period following the administration of the agent.

The target of experiment [6] is Angiotensin Converting Enzyme (ACE) (UniProt P12822). Description: fluorimetric ACE assay with HHL substrate, 96-well format. Type of experiment: biochemical. The conditions noted are these: for reduction of ACE activity (formation of L-histidyl-L-leucine): compound incubated with enzyme at 37° C. for 30 min. The protocol:
To determine whether the compounds of the presently-disclosed subject matter were capable of reducing the enzymatic activity of Angiotensin Converting Enzyme (ACE), an ACE assay was carried out according to the standard protocols (see, e.g., Schwager, et al. A high-throughput fluorimetric assay for angiotensin I-converting enzyme, Nature Protocols, 2006; 1 (4): 1961-1964, which is incorporated herein by this reference). The ACE assay involved a fluorimetric procedure in which the substrate hippury-L-histidyl-L-leucine (HHL) was used, and the fluorescent adduct of the enzyme-catalyzed product L-histidyl-L-leucine was quantified fluorimetrically. […] The results from the assay were analyzed in a 96-well plate reader with each concentration measured in triplicate.
Briefly, in a total of 250 μL assay volume, 10 μL of ACE enzyme (Sigma Chemical Co., St. Louis, Mo.) and 10 μL of either 1-(6,8-dimercaptooctanyl)pyrrolidine-2-carboxylic acid or prolyl lipoic acid (Formula (III) was added. Both compounds were incubated with enzyme at 37° C. for 30 min. The ACE substrate HHL, 6 μL in buffer, was then added to each well followed by incubation at 45° C. for 30 min. 170 μL of 0.3M sodium hydroxide solution was added to above solution followed by the addition of phalaldehyde solution in methanol. The mixture was then allowed to shake for 5 min. This step was followed by the addition of 32 μL of 2N hydrochloric acid to each well and subsequent measurement of the fluorescence at an excitation wavelength of 360 nm and an emission wavelength of 480 nm. Three controls were used to compare the readings, with the controls including wells without the enzyme, wells without the compounds, and wells without the HHL enzymatic substrate.
To further examine the IC50 value in relation to the absolute amounts of thiol groups of the 1-(6,8-dimercaptooctanyl)pyrrolidine-2-carboxylic acid compound, however, the amount of thiol groups in the reaction mixtures was also measured according to Ellman's method (see, e.g. Simpson R J, Estimation of free thiols and disulfide bonds using Ellman's reagent, CSHL Press, Cold Spring Harbor, N.Y., 2003; and, Ellman G L, Tissue sulfhydral groups, Arch. Biochem. Biophys., 1959; 82: 70-77, each of which are incorporated herein by this reference). […] The TNB^2− can then be quantified in a spectrophotometer by measuring the absorbance of visible light at 412 nm, using an extinction coefficient of 14,150M^−1 cm^−1 for dilute buffer solutions, and a coefficient of 13,700 M^−1 cm^−1 for high salt concentrations, such as 6 M guanidinium hydrochloride or 8 M urea. […] The absorbance was measured at 412 nm. […]

Where two headings read alike, the source gives them in different places.

Angiotensin Converting Enzyme (ACE), sequence (P12822 whole entry): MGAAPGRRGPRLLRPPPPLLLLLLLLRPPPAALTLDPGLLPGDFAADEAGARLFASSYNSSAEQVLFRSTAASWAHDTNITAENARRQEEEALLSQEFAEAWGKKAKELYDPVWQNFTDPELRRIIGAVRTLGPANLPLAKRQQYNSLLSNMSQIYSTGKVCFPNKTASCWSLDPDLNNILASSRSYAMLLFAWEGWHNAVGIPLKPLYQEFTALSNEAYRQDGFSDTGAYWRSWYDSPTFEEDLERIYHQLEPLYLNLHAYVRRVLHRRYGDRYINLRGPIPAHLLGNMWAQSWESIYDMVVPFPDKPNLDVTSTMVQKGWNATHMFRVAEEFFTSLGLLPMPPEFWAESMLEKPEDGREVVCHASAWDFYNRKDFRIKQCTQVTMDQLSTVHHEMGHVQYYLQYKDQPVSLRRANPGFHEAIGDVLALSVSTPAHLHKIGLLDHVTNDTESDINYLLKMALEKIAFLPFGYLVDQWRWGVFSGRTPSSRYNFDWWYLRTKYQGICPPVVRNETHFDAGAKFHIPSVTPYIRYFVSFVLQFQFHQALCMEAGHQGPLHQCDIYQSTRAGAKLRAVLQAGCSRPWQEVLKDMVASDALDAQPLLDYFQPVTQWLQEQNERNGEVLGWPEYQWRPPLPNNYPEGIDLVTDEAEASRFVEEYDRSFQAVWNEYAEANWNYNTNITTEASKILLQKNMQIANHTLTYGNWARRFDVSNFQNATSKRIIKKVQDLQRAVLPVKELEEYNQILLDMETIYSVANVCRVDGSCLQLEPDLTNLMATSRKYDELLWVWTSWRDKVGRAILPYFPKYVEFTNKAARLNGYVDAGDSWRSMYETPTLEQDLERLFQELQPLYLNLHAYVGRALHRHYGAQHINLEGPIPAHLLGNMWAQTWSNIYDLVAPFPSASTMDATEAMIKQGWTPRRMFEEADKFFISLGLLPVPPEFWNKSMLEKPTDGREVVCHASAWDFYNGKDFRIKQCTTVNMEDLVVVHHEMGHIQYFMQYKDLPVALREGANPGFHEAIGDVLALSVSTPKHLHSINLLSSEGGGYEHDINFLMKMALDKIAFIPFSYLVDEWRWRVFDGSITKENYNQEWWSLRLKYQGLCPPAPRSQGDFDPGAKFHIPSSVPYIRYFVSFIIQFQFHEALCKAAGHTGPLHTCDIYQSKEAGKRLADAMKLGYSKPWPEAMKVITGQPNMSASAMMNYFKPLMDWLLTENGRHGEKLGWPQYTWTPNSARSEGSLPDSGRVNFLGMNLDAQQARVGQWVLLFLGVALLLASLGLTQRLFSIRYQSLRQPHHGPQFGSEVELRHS

For `O=C(O)C1CCCN1C(=O)CCCCC1CCSS1` [prolyl lipoic acid, L-prolyl lipoic acid], the “inflammatory gene expression in aorta” value in experiment [1] (aorta) is on record as “markedly reduced inflammatory gene expression”. For the same molecule, in experiment [1] (brain), the “ICAM1 expression in brain” value is recorded as “some reductions in expression” and the “IL-6 expression in brain” value is given as “some reductions in expression”. The “reduction in inflammatory gene expression in brain” value in experiment [1] (brain, compared with other tissues) was “not as pronounced”. Besides, the “inflammatory gene expression in heart” value in experiment [1] (heart) is “markedly reduced inflammatory gene expression”. For the same molecule, the “inflammatory gene expression in kidney” value in experiment [1] (kidney) is “markedly reduced inflammatory gene expression”. In experiment [2] (1×10^−4 M), the “relaxation of pre-constricted rat aortic segments” value was “relaxed pre-constricted rat aortic segments”. In experiment [2] (1×10^−4 M, same aortic ring test (FIG. 15)), the “relaxation as compared to lipoic acid” value was “increase in relaxation as compared to lipoic acid”. In experiment [2] (rings pre-constricted to EC50 of phenylephrine, acetylcholine 10^−5M), the “endothelial function in aortic rings (vasodilation following acetylcholine)” value is “improve endothelial function”. Further, the “endothelial function (relaxation to acetylcholine or sodium nitroprusside)” value in experiment [3] was “improved endothelial function”. Moreover, in experiment [4], the “CD68 expression in the brain” value is “without affecting CD68 expression”, the “CD68 expression in the kidneys” value is reported as “without affecting CD68 expression”, the “CD68 expression in the myocardium” value was “without affecting CD68 expression” and the “inflammatory cell recruitment to the heart” value was “favorable effects”. In addition, the “inflammatory cell recruitment to the kidney” value in experiment [4] is reported as “favorable effects”. Moreover, the aortic medial hypertrophy result in experiment [4] (H&E sections) is “effects in reducing aortic medial hypertrophy”. The “blood pressure after a single dose” value in experiment [5] (50 mg/kg single dose, 12 hours after versus previous 12 hour period) is “significantly reduced blood pressure”. The “effects on blood pressure relative to captopril” value in experiment [5] (50 mg/kg versus captopril 100 mg/kg (FIG. 20)) is listed as “comparable to the angiotensin converting enzyme inhibitor, captopril”. The “blood pressure, acute administration” value in experiment [5] (50 mg/kg, SHRSP rats, FIGS. 18-19) was “acutely lowered blood pressure”. Also, the “reduction of ACE activity (formation of L-histidyl-L-leucine)” value in experiment [6] was “effectively reduce ACE activity”.
In the case of `O=C(O)C1CCCN1C(=O)CCCCC(S)CCS` (stereo not drawn), the “reduction of ACE activity (formation of L-histidyl-L-leucine)” value in experiment [6] is reported as “effectively reduce ACE activity”. In addition, the IC50 in experiment [6] (corrected for thiol content by Ellman's method, read-out: IC50 value recalculated after thiol quantification) is 6.6 µM; in experiment [6] (from plot of fluorescence counts against concentration (FIG. 13), read-out: IC50 value, initially found), ~29 µM.
Consider `O=C(O)CCCCC1CCSS1` (stereo not drawn) [lipoic acid, alpha lipoic acid, reference compound], for which the “relaxation of pre-constricted rat aortic segments” value in experiment [2] (1×10^−4 M) is given as “relaxed pre-constricted rat aortic segments”.

The values above are taken from US20110257130A1 (priority 2008, published 2011).
